Legend:
[1] = target: Amyloid-beta precursor protein (Homo sapiens, UniProt P05067); assay: Inhibition of amyloid beta 42 in human H4 cells; format: cell-based
[2] = Inhibition of LPS induced TNF-alpha secretion in human THP-1 cells pretreated with LPS for 1 hr followed by compound addition and measured after 3 hrs by ELISA method; format: functional, cell-based
[3] = Inhibition of MAPK p38 (unknown origin); set-up: species or system Homo sapiens
Canis familiaris [4] = assay: Cardioprotective activity in dogs assessed as increasing in coronary blood flow at 5.0 ug/kg, iv relative to control; format: functional, Canis lupus familiaris; conditions: dose 5 µg/kg
Canis familiaris [5] = assay: Cardioprotective activity in dogs assessed as reduction in aortic pressure at […], iv relative to control; format: functional, Canis lupus familiaris; set-up: scale not given: the % may be the effect or the level left
Canis familiaris [6] = assay: Cardioprotective activity in dogs assessed as increasing in coronary blood flow at […], iv relative to control; format: functional, Canis lupus familiaris
[7] = Cmax in mouse at 100 mg/kg, po; format: ADME, organism-based; set-up: dose 100 mg/kg, route po; conditions: in vivo
[8] = Half life in mouse at 10 mg/kg, ip; format: ADME, organism-based; conditions: in vivo
[9] = Cmax in mouse at 100 mg/kg, ip; format: ADME, organism-based; set-up: dose 100 mg/kg, route ip; conditions: in vivo
Lactate dehydrogenase = Lactate dehydrogenase (Plasmodium falciparum, UniProt Q0PJ46); assay: Inhibition of recombinant Plasmodium falciparum LDH
[10] = Inhibition of human recombinant LDH
Plasmodium falciparum [11] = assay: Antimalarial activity against Plasmodium falciparum assessed as parasitic reduction at 100 mg/kg relative to control; format: functional; set-up: scale not given: the % may be the effect or the level left
Plasmodium falciparum [12] = assay: Antimalarial activity against drug sensitive Plasmodium falciparum 3D7; format: functional, organism-based
[13] = Binding affinity to Plasmodium falciparum LDH assessed as inhibitory constant
Plasmodium falciparum [14] = assay: Antimalarial activity against Plasmodium falciparum assessed as parasitic reduction at 10 mg/kg of chloroquine relative to control; format: functional; set-up: scale not given: the % may be the effect or the level left
[15] = Half life in mouse at 10 mg/kg, po; format: ADME, organism-based; conditions: in vivo
physchem = conditions: octanol/water
Description: Lipophilicity, log P of the compound

[16] = Binding affinity to human wild type HIF2alpha assessed as dissociation constant by calorimetry assay
[17] = Inhibition of HIF (unknown origin); set-up: species or system Homo sapiens
Jurkat = assay: Antiproliferative activity against human Jurkat cells assessed as reduction in cell viability measured after 48 hrs by MTT assay; format: functional, cell-based
HEL = assay: Antiproliferative activity against human HEL cells assessed as reduction in cell viability measured after 48 hrs by MTT assay; format: functional, cell-based
[18] = Half life in mouse; format: ADME, organism-based; conditions: in vivo
K562 = assay: Antiproliferative activity against human K562 cells assessed as reduction in cell viability measured after 48 hrs by MTT assay; format: functional, cell-based; conditions: K562, 48 h
HCT-116 = assay: Antiproliferative activity against human HCT-116 cells assessed as reduction in cell viability by MTT assay; format: functional, cell-based
HeLa = assay: cells; conditions: Homo sapiens
Description: Antiproliferative activity against human HeLa cells assessed as reduction in cell viability

[19] = Stability in rat assessed as intrinsic clearance; format: ADME; conditions: CLH
NT2 = assay: Inhibition of camptothecin induced apoptosis in human NT2 cells incubated for 5 hrs in presence of camptothecin by ELISA method; format: functional, cell-based; conditions: NT2, 5 h
[20] = Inhibition of GSK3 (unknown origin); set-up: species or system Homo sapiens
[21] = Inhibition of p70S6K (unknown origin); set-up: species or system Homo sapiens
[22] = target: Ribosomal protein S6 kinase alpha-1 (Homo sapiens, UniProt Q15418); assay: Inhibition of RSK1 (unknown origin)
Canis familiaris [23] = assay: Cardioprotective activity in dogs assessed as reduction in aortic pressure at 5.0 ug/kg, iv relative to control; format: functional, Canis lupus familiaris; set-up: scale not given: the % may be the effect or the level left
HL-60 = assay: Antiproliferative activity against (unknown origin) HL-60 assessed as inhibition of cell proliferation by MTT assay; format: functional, cell-based; conditions: Homo sapiens
Daudi = assay: Antiproliferative activity against human Daudi assessed as inhibition of cell proliferation by MTT assay; format: functional, cell-based
c-Myc/c-Max = c-Myc/c-Max (Homo sapiens, UniProt P01106+P61244); assay: Inhibition of Myc/Max (unknown origin); format: protein assay
[24] = Inhibition of recombinant MAPK p38 (unknown origin) assessed as inhibition of MEF2A phosphorylation incubated for 5 mins by SDS-PAGE method; set-up: species or system Homo sapiens

c-Myc/c-Max, sequence (P01106 whole entry): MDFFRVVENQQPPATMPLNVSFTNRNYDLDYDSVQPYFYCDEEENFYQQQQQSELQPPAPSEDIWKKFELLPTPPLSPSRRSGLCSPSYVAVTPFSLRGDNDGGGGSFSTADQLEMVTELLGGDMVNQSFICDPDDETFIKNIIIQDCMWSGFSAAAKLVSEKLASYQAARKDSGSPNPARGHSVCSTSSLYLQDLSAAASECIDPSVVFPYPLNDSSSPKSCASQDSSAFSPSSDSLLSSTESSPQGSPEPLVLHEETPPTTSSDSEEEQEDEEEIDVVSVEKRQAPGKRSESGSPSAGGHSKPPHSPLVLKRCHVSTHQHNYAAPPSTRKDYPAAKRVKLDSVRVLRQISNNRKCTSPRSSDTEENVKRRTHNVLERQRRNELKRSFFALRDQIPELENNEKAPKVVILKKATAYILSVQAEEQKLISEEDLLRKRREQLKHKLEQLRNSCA
c-Myc/c-Max, sequence (P61244 whole entry): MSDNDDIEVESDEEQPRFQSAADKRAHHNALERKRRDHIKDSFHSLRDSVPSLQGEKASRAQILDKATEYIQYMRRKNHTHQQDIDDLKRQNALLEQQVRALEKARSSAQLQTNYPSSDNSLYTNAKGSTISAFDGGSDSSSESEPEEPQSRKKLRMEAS
Amyloid-beta precursor protein, sequence (P05067 whole entry): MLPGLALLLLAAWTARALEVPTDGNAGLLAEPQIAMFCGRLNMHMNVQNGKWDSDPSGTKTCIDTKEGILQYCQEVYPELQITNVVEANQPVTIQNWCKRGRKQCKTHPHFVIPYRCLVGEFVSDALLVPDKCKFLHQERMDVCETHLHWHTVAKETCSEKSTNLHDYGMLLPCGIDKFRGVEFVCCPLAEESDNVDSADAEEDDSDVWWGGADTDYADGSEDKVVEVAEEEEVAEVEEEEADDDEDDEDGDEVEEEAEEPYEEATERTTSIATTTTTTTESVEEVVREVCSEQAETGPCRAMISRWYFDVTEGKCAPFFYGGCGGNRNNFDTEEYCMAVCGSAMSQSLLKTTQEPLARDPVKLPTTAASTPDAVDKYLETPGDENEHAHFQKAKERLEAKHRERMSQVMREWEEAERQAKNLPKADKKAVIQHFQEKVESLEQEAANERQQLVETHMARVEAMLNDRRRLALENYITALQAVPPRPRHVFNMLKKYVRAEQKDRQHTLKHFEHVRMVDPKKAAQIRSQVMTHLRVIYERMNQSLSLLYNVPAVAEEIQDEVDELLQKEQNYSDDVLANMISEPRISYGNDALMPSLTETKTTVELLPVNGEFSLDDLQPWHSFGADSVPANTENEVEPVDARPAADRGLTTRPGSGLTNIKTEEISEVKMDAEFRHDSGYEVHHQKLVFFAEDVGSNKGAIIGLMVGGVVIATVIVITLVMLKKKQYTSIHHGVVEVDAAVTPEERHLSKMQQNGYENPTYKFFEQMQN
Lactate dehydrogenase, sequence (Q0PJ46 whole entry): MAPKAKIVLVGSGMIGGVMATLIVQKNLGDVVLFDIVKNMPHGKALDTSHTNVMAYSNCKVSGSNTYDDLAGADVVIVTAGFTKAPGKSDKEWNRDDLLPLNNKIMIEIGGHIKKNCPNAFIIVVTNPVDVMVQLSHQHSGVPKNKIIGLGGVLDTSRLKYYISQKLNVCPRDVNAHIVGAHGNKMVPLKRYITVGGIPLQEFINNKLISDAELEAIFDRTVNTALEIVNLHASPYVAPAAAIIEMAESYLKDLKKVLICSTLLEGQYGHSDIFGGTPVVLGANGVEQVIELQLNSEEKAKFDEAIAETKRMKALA
Ribosomal protein S6 kinase alpha-1, sequence (Q15418 whole entry): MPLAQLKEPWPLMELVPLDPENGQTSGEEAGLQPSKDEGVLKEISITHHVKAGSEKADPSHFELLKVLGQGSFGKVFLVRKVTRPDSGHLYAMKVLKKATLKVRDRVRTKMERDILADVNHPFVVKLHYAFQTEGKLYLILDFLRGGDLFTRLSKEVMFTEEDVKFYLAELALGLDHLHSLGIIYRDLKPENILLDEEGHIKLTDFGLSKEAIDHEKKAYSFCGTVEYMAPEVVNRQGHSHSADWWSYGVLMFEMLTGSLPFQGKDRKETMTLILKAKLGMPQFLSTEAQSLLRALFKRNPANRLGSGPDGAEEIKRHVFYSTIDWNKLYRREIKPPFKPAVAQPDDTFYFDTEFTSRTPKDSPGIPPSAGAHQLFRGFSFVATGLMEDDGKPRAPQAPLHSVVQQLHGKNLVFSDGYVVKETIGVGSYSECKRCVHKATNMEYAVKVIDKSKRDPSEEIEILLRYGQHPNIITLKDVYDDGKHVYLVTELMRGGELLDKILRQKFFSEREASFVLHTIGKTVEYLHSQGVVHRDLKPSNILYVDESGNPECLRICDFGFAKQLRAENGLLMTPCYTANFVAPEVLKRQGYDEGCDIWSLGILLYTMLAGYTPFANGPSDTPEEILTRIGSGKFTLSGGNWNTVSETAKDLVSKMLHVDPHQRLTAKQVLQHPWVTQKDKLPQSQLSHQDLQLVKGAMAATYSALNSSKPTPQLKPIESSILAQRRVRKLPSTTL

With O=C(O)[C@H](CC1CCC1)c1cc(Cl)c(OCC(F)(F)F)c(-c2ccc(C(F)(F)F)cc2)c1 as the molecule, how does the EC50 [1] read?
Its EC50 is 0.07 µM.

What does the source list for Cc1ccc(Cl)cc1Nc1ccc([N+](=O)[O-])c2nonc12?
EC50 [2]: 1.8 µM; IC50 [3]: 6.3 µM

Which Activity (Canis familiaris [4]) does the source give for CC1(C)Oc2cc3nonc3cc2[C@@H](N2CCCCC2=O)[C@@H]1O here?
Its Activity is 33.3%.

What about the Activity (Canis familiaris [5]) of the same molecule?
The Activity was -7.5%.

And the Activity (Canis familiaris [6])?
The Activity was 34.3%.

What does the source list for O=C(O)c1conc1O?
Cmax [7]: 153 µM; half-life [8]: 1.1 h; Cmax [9]: 158 µM; IC50 (Lactate dehydrogenase): 1.1 µM; IC50 [10]: 54 µM; Activity (Plasmodium falciparum [11]): 30%; EC50 (Plasmodium falciparum [12]): 74.4 µM; EC90 (Plasmodium falciparum [12]): > 200 µM; Ki [13]: 0.47 µM; Activity (Plasmodium falciparum [14]): 100%; half-life [15]: 1.6 h

Which results are given for Fc1cc(Br)cc([C@@H]2C[C@H](c3cccc(Br)c3)n3nnnc3N2)c1?
logP (physchem): 4.4; Kd [16]: 0.023 µM; IC50 [17]: 43 µM

Which results are given for CC1(C)CC[C@]2(C(=O)O)CC[C@]3(C)C(=CC[C@@H]4[C@@]5(C)CC[C@H](O)C(C)(C)[C@@H]5CC[C@]43C)[C@@H]2C1 [OLEANOLIC_ACID]?
EC50 (Jurkat): > 1 µM; EC50 (HEL): > 1 µM; half-life [18]: 0.7 h; EC50 (K562): > 100 µM

For O=C(Nc1nonc1-c1ccc(Cl)cc1)c1ccc(C(F)(F)F)cc1, which EC50 (HCT-116) is on record?
Its EC50 is 1.3 µM.

What does the source list for Nc1nonc1C(=NO)Nc1ccc(F)c(Cl)c1?
EC50 (HeLa): 0.019 µM; CLint scaled [19]: > 2.2 L/h/kg

Which EC50 (NT2) does the source give for CC(=O)N[C@@H](CC(=O)O)C(=O)N[C@@H](CCC(=O)O)C(=O)N[C@H](C(=O)N[C@H](C=O)CC(=O)O)C(C)C here?
Its EC50 is over 100 µM.

With CCn1c(-c2nonc2N)nc2cncc(CNC3CCNCC3)c21 as the molecule, how does the IC50 [20] read?
Its IC50 is 1.9 µM.

And the IC50 [21]?
The IC50 was 0.27 µM.

And the IC50 [22]?
Its IC50 is 0.155 µM.

For CC1(C)Oc2ccc(C#N)cc2[C@@H](N2CCCC2=O)[C@@H]1O [LEVCROMAKALIM], which Activity (Canis familiaris [23]) is on record?
Its Activity is -11.2%.

What does the source list for O=C(Oc1ccccc1)c1ccccc1Nc1ccc([N+](=O)[O-])c2nonc12?
EC50 (HL-60): 9.6 µM; EC50 (Daudi): 3.1 µM; IC50 (c-Myc/c-Max): 40 µM

Which EC50 (HeLa) does the source give for Nc1nonc1/C(=N/O)NCc1ccccc1 here?
Its EC50 is 1 µM.

For Cc1ccc(Cl)cc1Nc1cc(Cl)c2nonc2c1[N+](=O)[O-], which IC50 [24] is on record?
The IC50 was 10 µM.

What does the source list for CC1(C)CC[C@]2(C(=O)O)CC[C@]3(C)C(=CC[C@@H]4[C@@]5(C)Cc6nonc6C(C)(C)[C@@H]5CC[C@]43C)[C@@H]2C1?
EC50 (Jurkat): 0.29 µM; EC50 (HEL): > 0.21 µM; half-life [18]: 1.5 h; EC50 (K562): 0.78 µM

From ChEMBL document CHEMBL5236544, “Furazans in Medicinal Chemistry” (J Med Chem, 2021)
